The values below come from ChEMBL document CHEMBL1150287.
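Further: measures inhibition of [3H]5-hydroxytryptamine uptake through human SERT expressed in COS-7 cells.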

This experiment deals with Sodium-dependent serotonin transporter (Homo sapiens) (UniProt P31645). The conditions noted are these: COS-7, at 100 nM.
Sodium-dependent serotonin transporter (Homo sapiens), sequence (P31645 whole entry, looked up): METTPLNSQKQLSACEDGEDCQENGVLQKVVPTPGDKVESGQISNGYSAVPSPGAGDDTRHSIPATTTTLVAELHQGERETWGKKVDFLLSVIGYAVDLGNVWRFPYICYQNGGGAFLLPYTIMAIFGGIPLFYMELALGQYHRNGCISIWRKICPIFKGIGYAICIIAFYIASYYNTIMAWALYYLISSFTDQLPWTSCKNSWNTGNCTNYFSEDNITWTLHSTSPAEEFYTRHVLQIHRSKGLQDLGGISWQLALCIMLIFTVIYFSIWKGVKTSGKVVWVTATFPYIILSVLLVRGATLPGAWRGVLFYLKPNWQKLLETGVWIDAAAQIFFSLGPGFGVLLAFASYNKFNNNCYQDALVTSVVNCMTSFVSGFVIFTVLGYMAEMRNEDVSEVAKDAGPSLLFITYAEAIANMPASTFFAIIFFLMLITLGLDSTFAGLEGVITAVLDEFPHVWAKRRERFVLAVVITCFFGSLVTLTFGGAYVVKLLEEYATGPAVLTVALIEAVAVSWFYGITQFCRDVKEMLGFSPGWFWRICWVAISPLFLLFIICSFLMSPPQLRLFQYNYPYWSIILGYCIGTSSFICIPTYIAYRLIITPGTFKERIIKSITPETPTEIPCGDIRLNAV
Description: Inhibition of [3H]5-hydroxytryptamine reuptake at human SERT expressed in african green monkey COS7 cells at 100 nM
Regarding `CN(C)CCCC1(c2ccccc2)OC(C)(C)c2cc(C#N)ccc21` (stereo unspecified), the inhibition (in general, the relative decrease from the control value, in per cent) is 0.69%.
Next, `CN(C)CCCC1(c2ccc(F)cc2)OCc2ccccc21` (stereo unspecified): 26.6%; `CN(C)CCCC1(c2ccccc2)OC(C)(C)c2ccccc21` (stereo unspecified): 0.31%; `CNCCCC1(c2ccccc2)OC(C)(C)c2ccccc21` (stereo unspecified): 1.65%.
Next, `CNCCC(Oc1ccccc1OC)c1ccccc1` (stereo unspecified): 12.8%; `CN(C)CCCC1(c2ccc(F)cc2)OC(C)(C)c2ccccc21` (stereo unspecified): 0.71%.
For `CNCCCC1(c2ccc(F)cc2)OCc2cc(C#N)ccc21` (stereo unspecified) the value was 55.5%; for `CN(C)CCCC1(c2ccc(F)cc2)OC(C)(C)c2cc(C#N)ccc21` (stereo unspecified), 0.74%.
The compound `CNCCCC1(c2ccccc2)OCc2ccccc21` (stereo unspecified) had an inhibition of 9.76%.
The compound `CNCCCC1(c2ccccc2)OCc2cc(C#N)ccc21` (stereo unspecified) had an inhibition of 53.9%.
Consider `CNCCCC1(c2ccc(F)cc2)OC(C)(C)c2ccccc21` (stereo unspecified), for which the inhibition was found to be 3.89%.
`CNCCCC1(c2ccc(F)cc2)OCc2ccccc21` (stereo unspecified) had an inhibition of 20.8%.
For `CNCCCC1(c2ccccc2)OC(C)(C)c2cc(C#N)ccc21` (stereo unspecified) the value was 7.23%.
Next, `CNCCCC1(c2ccc(F)cc2)OC(C)(C)c2cc(C#N)ccc21` (stereo unspecified): 6.56%; `CN(C)CCCC1(c2ccccc2)OCc2cc(C#N)ccc21` (stereo unspecified): 27.4%.
In turn, `CN(C)CCCC1(c2ccccc2)OCc2ccccc21` (stereo unspecified) came in with an inhibition of 8.66%.
